According to the NIST ThermoML archive (doi:10.1016/j.jct.2011.11.025):
Numbers after ± are expanded uncertainties.

Key:
[1] = 101.33 kPa, Liquid, Vibrating tube method
[2] = activity coefficient (dimensionless); of the first substance listed, at infinite dilution; xn = mol fraction of the nth substance listed; conditions: Liquid, Chromatography, x1 = 0

Row | Compound | mass density ([1]; 318.15 K) [kg/m3] | mass density ([1]; 328.15 K) [kg/m3] | mass density ([1]; 338.15 K) [kg/m3] | mass density ([1]; 348.15 K) [kg/m3] | mass density ([1]; 358.15 K) [kg/m3] | mass density ([1]; 368.15 K) [kg/m3] | activity coefficient ([2]; 318.15 K) | activity coefficient ([2]; 328.15 K) | activity coefficient ([2]; 338.15 K) | activity coefficient ([2]; 348.15 K) | activity coefficient ([2]; 358.15 K) | activity coefficient ([2]; 368.15 K)
1 | CCCCCCn1cc[n+](C)c1.N#C[B-](C#N)(C#N)C#N [1-hexyl-3-methylimidazolium tetracyanoborate] | 976.11 ± 0.23 | 969.06 ± 0.23 | 962.08 ± 0.23 | 955.16 ± 0.23 | 948.32 ± 0.23 | 941.2 ± 0.23 | – | – | – | – | – | –
2 | C1CCCCCC1 [cycloheptane] + CCCCCCn1cc[n+](C)c1.N#C[B-](C#N)(C#N)C#N | – | – | – | – | – | – | 7.96 ± 0.37 | 7.46 ± 0.34 | 7.07 ± 0.32 | 6.76 ± 0.31 | 6.45 ± 0.3 | 6.21 ± 0.28
3 | CC#N [acetonitrile] + CCCCCCn1cc[n+](C)c1.N#C[B-](C#N)(C#N)C#N | – | – | – | – | – | – | 0.387 ± 0.034 | 0.391 ± 0.034 | 0.394 ± 0.034 | 0.396 ± 0.034 | 0.398 ± 0.034 | 0.4 ± 0.034
4 | C=C(C)c1ccccc1 [(1-methylethenyl)benzene] + CCCCCCn1cc[n+](C)c1.N#C[B-](C#N)(C#N)C#N | – | – | – | – | – | – | – | 1.2 ± 0.04 | 1.26 ± 0.04 | 1.3 ± 0.04 | 1.34 ± 0.05 | 1.38 ± 0.05
5 | C=CCCCC [hex-1-ene] + CCCCCCn1cc[n+](C)c1.N#C[B-](C#N)(C#N)C#N | – | – | – | – | – | – | 6.13 ± 0.28 | 5.88 ± 0.27 | 5.71 ± 0.26 | 5.58 ± 0.26 | 5.44 ± 0.25 | 5.35 ± 0.24
6 | CCCC(=O)OC [methyl butanoate] + CCCCCCn1cc[n+](C)c1.N#C[B-](C#N)(C#N)C#N | – | – | – | – | – | – | 0.664 ± 0.03 | 0.684 ± 0.03 | 0.701 ± 0.029 | 0.715 ± 0.029 | 0.733 ± 0.029 | 0.751 ± 0.029
7 | CC1CCCCC1 [methylcyclohexane] + CCCCCCn1cc[n+](C)c1.N#C[B-](C#N)(C#N)C#N | – | – | – | – | – | – | 8.87 ± 0.41 | 8.35 ± 0.38 | 7.87 ± 0.36 | 7.58 ± 0.35 | 7.24 ± 0.33 | 7 ± 0.32
8 | CCCO [propan-1-ol] + CCCCCCn1cc[n+](C)c1.N#C[B-](C#N)(C#N)C#N | – | – | – | – | – | – | 1.19 ± 0.04 | 1.1 ± 0.03 | 1.02 ± 0.03 | 0.965 ± 0.026 | 0.913 ± 0.026 | 0.864 ± 0.027
9 | CCCCCCCCCC [decane] + CCCCCCn1cc[n+](C)c1.N#C[B-](C#N)(C#N)C#N | – | – | – | – | – | – | 43.6 ± 2 | 40 ± 1.9 | 36.4 ± 1.7 | 33.8 ± 1.6 | 31.3 ± 1.5 | 29.3 ± 1.4
10 | Cc1ccc(C)cc1 [1,4-dimethylbenzene] + CCCCCCn1cc[n+](C)c1.N#C[B-](C#N)(C#N)C#N | – | – | – | – | – | – | 1.33 ± 0.05 | 1.36 ± 0.05 | 1.39 ± 0.05 | 1.42 ± 0.05 | 1.44 ± 0.05 | 1.47 ± 0.06
11 | CCCCCC [hexane] + CCCCCCn1cc[n+](C)c1.N#C[B-](C#N)(C#N)C#N | – | – | – | – | – | – | 11.8 ± 0.5 | 11.2 ± 0.5 | 10.6 ± 0.5 | 10.2 ± 0.5 | 9.79 ± 0.45 | 9.53 ± 0.44
12 | CCc1ccccc1 [ethylbenzene] + CCCCCCn1cc[n+](C)c1.N#C[B-](C#N)(C#N)C#N | – | – | – | – | – | – | 1.39 ± 0.05 | 1.41 ± 0.05 | 1.43 ± 0.05 | 1.45 ± 0.05 | 1.47 ± 0.06 | 1.49 ± 0.06
13 | CCC(C)(C)OC [2-methoxy-2-methylbutane] + CCCCCCn1cc[n+](C)c1.N#C[B-](C#N)(C#N)C#N | – | – | – | – | – | – | 2.19 ± 0.1 | 2.24 ± 0.1 | 2.27 ± 0.1 | 2.33 ± 0.11 | 2.36 ± 0.11 | 2.42 ± 0.11
14 | C=Cc1ccccc1 [styrene] + CCCCCCn1cc[n+](C)c1.N#C[B-](C#N)(C#N)C#N | – | – | – | – | – | – | – | 0.83 ± 0.03 | 0.856 ± 0.027 | 0.878 ± 0.027 | 0.902 ± 0.026 | 0.926 ± 0.026
15 | CCC(=O)CC [pentan-3-one] + CCCCCCn1cc[n+](C)c1.N#C[B-](C#N)(C#N)C#N | – | – | – | – | – | – | 0.478 ± 0.033 | 0.498 ± 0.033 | 0.518 ± 0.032 | 0.536 ± 0.032 | 0.551 ± 0.032 | 0.569 ± 0.031
16 | C1=CCCCC1 [cyclohexene] + CCCCCCn1cc[n+](C)c1.N#C[B-](C#N)(C#N)C#N | – | – | – | – | – | – | 3.48 ± 0.16 | 3.38 ± 0.15 | 3.27 ± 0.15 | 3.25 ± 0.15 | 3.17 ± 0.14 | 3.14 ± 0.14
17 | CC(C)=O [acetone] + CCCCCCn1cc[n+](C)c1.N#C[B-](C#N)(C#N)C#N | – | – | – | – | – | – | 0.335 ± 0.035 | 0.344 ± 0.035 | 0.354 ± 0.035 | 0.363 ± 0.035 | 0.372 ± 0.034 | 0.381 ± 0.034
18 | C1CCCCCCC1 [cyclooctane] + CCCCCCn1cc[n+](C)c1.N#C[B-](C#N)(C#N)C#N | – | – | – | – | – | – | 9.94 ± 0.46 | 9.29 ± 0.43 | 8.75 ± 0.4 | 8.33 ± 0.38 | 7.9 ± 0.36 | 7.57 ± 0.35
19 | C1CCCCC1 [cyclohexane] + CCCCCCn1cc[n+](C)c1.N#C[B-](C#N)(C#N)C#N | – | – | – | – | – | – | 6.52 ± 0.3 | 6.15 ± 0.28 | 5.85 ± 0.27 | 5.58 ± 0.26 | 5.38 ± 0.25 | 5.21 ± 0.24
20 | CCC(C)CC [3-methylpentane] + CCCCCCn1cc[n+](C)c1.N#C[B-](C#N)(C#N)C#N | – | – | – | – | – | – | 10.5 ± 0.5 | 9.96 ± 0.46 | 9.5 ± 0.44 | 9.15 ± 0.42 | 8.81 ± 0.4 | 8.6 ± 0.39
21 | CC(C)(C)O [2-methylpropan-2-ol] + CCCCCCn1cc[n+](C)c1.N#C[B-](C#N)(C#N)C#N | – | – | – | – | – | – | 1.2 ± 0.04 | 1.11 ± 0.03 | 1.04 ± 0.03 | 0.988 ± 0.025 | 0.951 ± 0.026 | 0.914 ± 0.026
22 | CCCC(C)=O [pentan-2-one] + CCCCCCn1cc[n+](C)c1.N#C[B-](C#N)(C#N)C#N | – | – | – | – | – | – | 0.497 ± 0.033 | 0.513 ± 0.032 | 0.529 ± 0.032 | 0.544 ± 0.032 | 0.556 ± 0.032 | 0.572 ± 0.031
23 | c1ccsc1 [thiophene] + CCCCCCn1cc[n+](C)c1.N#C[B-](C#N)(C#N)C#N | – | – | – | – | – | – | 0.636 ± 0.03 | 0.647 ± 0.03 | 0.657 ± 0.03 | 0.666 ± 0.03 | 0.678 ± 0.03 | 0.689 ± 0.03
24 | c1ccncc1 [pyridine] + CCCCCCn1cc[n+](C)c1.N#C[B-](C#N)(C#N)C#N | – | – | – | – | – | – | 0.38 ± 0.034 | 0.389 ± 0.034 | 0.4 ± 0.034 | 0.408 ± 0.034 | 0.418 ± 0.034 | 0.429 ± 0.034
25 | CCCCCCCC [octane] + CCCCCCn1cc[n+](C)c1.N#C[B-](C#N)(C#N)C#N | – | – | – | – | – | – | 22.8 ± 1.1 | 21.1 ± 1 | 19.7 ± 0.9 | 18.6 ± 0.9 | 17.4 ± 0.8 | 16.6 ± 0.8
26 | C#CCCCCC [1-heptyne] + CCCCCCn1cc[n+](C)c1.N#C[B-](C#N)(C#N)C#N | – | – | – | – | – | – | 2.92 ± 0.13 | 2.93 ± 0.13 | 2.94 ± 0.13 | 2.98 ± 0.14 | 2.99 ± 0.14 | 3.02 ± 0.14
